Where a name gives a salt, the structure may show the parent alone.
Key:
[1] = Solubility of bumetanide (free acid) in water in the presence and absence of surfactant, HPLC; format: physicochemical; conditions: 10 mg in 1 mL deionized water, no surfactant
Description: Bumetanide, 10 mg, in its free acid form was added to 1 mL of deionized water and mixed using a vortex and sonicator. The solution was filtered using a 0.22 μm nylon syringe filter. To 900 μL deionized water, 100 μL of the filtered bumetanide solution was added before being characterized for the concentration of the bumetanide in solution using HPLC. The concentration of bumetanide was determined using a standard curve generated by bumetanide solutions of known concentrations. […] Therefore, to the 10 mg of bumetanide, 1 mL of deionized water containing 1.0%, 0.5% or 0.1% of the surfactant tetradecyl-β-D-maltoside. The bumetanide was then solubilized using a vortex and sonicator, after which it was filtered using a 0.22 μm nylon syringe filter. To 900 μL deionized water, 100 μL of the filtered bumetanide solution was added before being characterized for the concentration of the bumetanide in solution using HPLC. The resulting bumetanide concentrations are recorded in Table 1.

[2] = Serum pharmacokinetics of bumetanide after single intranasal, sublingual or intravenous dose in dogs; conditions: both sexes, beagle, dog, in vivo, 0.5-mg IV dose (Second Replicate), individual animals
Description: The purpose of this study was to assess the pharmacokinetic profiles of various formulations of bumetanide, including arginine bumetanide salts (F69), potassium bumetanide salts (F10), an bumetanide emulsion (FE-9), and a nano-emulsion of bumetanide (FNE-1), which are described in Table 42, when each formulation is administered as a single intranasal dose or as a single sublingual dose in different vehicles when compared to single IV administration dose in male and female beagle dogs.
A total of four dogs were assigned to the study (3 males, 8-12 kg and 1 female, 7-11 kg). Because bumetanide is a diuretic, 30 minutes prior to dosing, the dogs received a 100 mL injection of Lactated Ringer's solution subcutaneously (SQ) for all events. The 100 mL injection was repeated ˜2 hours post-dose.
This study was conducted in 9 Events in two phases (A and B) in the same animals, separated by approximately a 48 hour or more washout period between events in each phase and ˜2 weeks rest period between phases, meaning Phase B events were initiated after ˜2 weeks rest period from completion of Event 5. The dosing regimen for Phase A and Phase B events are described in Table 43 and 44 respectively.
For intranasal administration, each dog was held in an upright position with the nose pointing up. […]

[3] = Stability of arginine and potassium bumetanide salt solutions over four weeks at 5 °C or 25 °C; format: physicochemical; conditions: for stability in solution (conclusion): at either 5° C. or 25° C.
Description: The stability of the arginine and potassium bumetanide salts was monitored over a four week period with storage at either 2-8° C. or 25° C. for that time period. The bumetanide salt solutions were evaluated on the basis of pH, concentration of bumetanide in solution, the percent assay recovery and the presence of an impurity (see Tables 18 and 19).

[4] = Solubility of bumetanide salts formed in situ with various bases (saturated solution, HPLC); format: physicochemical; conditions: deionized water with base added (salt formed in situ), thermodynamic from solid, 20 mg bumetanide in 1 mL deionized water + base, 0.22 μm filtrate, read-out: Calculated conc. (measured solubility of bumetanide salt)
Description: The acid form of bumetanide was weighed out to 20 mg and dissolved in 1 mL of deionized water by mixing with a vortex to form a low-pH solution of bumetanide. To this low pH bumetanide solution, a determined amount of base was added and mixed using a vortex for 2 minutes, to form a solution having a pH suitable for nasal administration. With the increasing pH the bumetanide salt formed in situ precipitated, in part, to form a saturated solution of the resulting salt form. The saturated solution was then filtered through a 0.22 μm filter to remove all precipitated bumetanide salt. The filtrate was collected, and its pH was measured. An aliquot of the saturated solution was assayed for bumetanide by HPLC to determine the maximum concentration achievable for the salt form in water at about neutral pH.
This procedure was repeated for various bases, including arginine, lysine, potassium, sodium, glycine, histidine, and the cationic lipophilic surfactants soy lecithin, distearoyl glycerol-3-phosphatidylamine, L-α-phosphatidylethanolamine and bis(2-ethylhexyl)amine, in order to determine the maximum solubility of each bumetanide salt solution.

Row | Compound | Assay ([3]; 1 week, 5° C.) [mg/mL] | pH ([3]; 1 week, 5° C.) | Assay ([3]; 1 week, 25° C.) [mg/mL] | pH ([3]; 1 week, 25° C.) | Assay ([3]; 2 weeks, 5° C.) [mg/mL] | pH ([3]; 2 weeks, 5° C.) | Assay ([3]; 2 weeks, 25° C.) [mg/mL] | pH ([3]; 2 weeks, 25° C.) | Assay ([3]; 4 weeks, 5° C.) [mg/mL] | pH ([3]; 4 weeks, 5° C.) | Assay ([3]; 4 weeks, 25° C.) [mg/mL] | pH ([3]; 4 weeks, 25° C.) | Assay ([3]; T0) [mg/mL] | Osmolality ([3]; T0) [mOsm/kg] | Viscosity ([3]; T0) [cP] | pH ([3]; T0) | stability in solution (conclusion) [3] | other results
1 | CCCCNc1cc(C(=O)O)cc(S(N)(=O)=O)c1Oc1ccccc1 [Bumetanide, bumetanide] | – | – | – | – | – | – | – | – | – | – | – | – | – | – | – | – | – | solubility of free acid form in water [1]: Nearly no bumetanide in the free acid form was soluble water; concentration at 45 min [2]: 13.9 ng/mL
2 | CCCCNc1cc(C(=O)O)cc(S(N)(=O)=O)c1Oc1ccccc1.N=C(N)NCCCC(N)C(=O)O [arginine bumetanide salt] | 5.08 | 7.0 | 5.06 | 7.1 | 4.99 | 7.0 | 4.97 | 7.0 | 4.89 | 7.0 | 4.97 | 7.1 | 5.07 | 335 | 1.3 | 7.0 | stable for up to four weeks | impurity by HPLC ([3]; initially or after four weeks, 5° C. and 25° C.): no impurity was detected
3 | CCCCNc1cc(C(=O)O)cc(S(N)(=O)=O)c1Oc1ccccc1 [potassium bumetanide salt] | 5.18 | 7.0 | 5.10 | 7.0 | 4.97 | 7.0 | 4.96 | 7.1 | 5.00 | 7.0 | 5.03 | 7.1 | 5.10 | 317 | 1.3 | 7.0 | stable for up to four weeks | solubility at 2 min [4]: 20.2 mg/mL
